Read-outs that look alike come from different tables or passages of the source.
Columns and labels:
Assay type in all cases: cell-based
[1] = tested on: K. pneumoniae ATCC 700603 strain producing SHV 18 ESBL; assay: Cidal activity (bacterial count over time); details: for Bacterial count: concentrations in label
[2] = tested on: K. pneumoniae B 43 strain producing SHV and TEM ESBLs; assay: Cidal activity (bacterial count over time); details: concentrations in label
[3] = tested on: K. pneumoniae ATCC 700603 strain producing SHV 18 ESBL; assay: MIC by agar dilution (CLSI); details: Klebsiella pneumoniae
Procedure: The efficacy of compositions and methods in treating or controlling bacterial infections was studied. In a typical study, overnight grown bacterial cultures were diluted appropriately and inoculated on the agar media containing doubling dilutions of the antibiotic. Observation for growth or no growth was performed after 16-20 hours of incubation at 35±2° C. in ambient air. The overall procedure was performed as per Clinical and Laboratory Standards Institute (CLSI) recommendations (Clinical and Laboratory Standards Institute (CLSI), performance Standards for Antimicrobial Susceptibility Testing, 20th Informational Supplement, M 100-S20, Volume 30, No. 1, 2010).

[4] = Table 7, 2 hours, initial count 7.27 log CFU/ml
[5] = Table 7, 4 hours, initial count 7.27 log CFU/ml
[6] = Table 7, 8 hours, initial count 7.27 log CFU/ml
[7] = Table 2, 2 hours, initial count 6.65 log CFU/ml
[8] = Table 2, 6 hours, initial count 6.65 log CFU/ml
[9] = Table 2, 8 hours, initial count 6.65 log CFU/ml
[10] = Table 4, 2 hours, initial count 7.43 log CFU/ml
[11] = Table 4, 4 hours, initial count 7.43 log CFU/ml
[12] = Table 4, 8 hours, initial count 7.43 log CFU/ml
[13] = Table 6, 2 hours, initial count 7.27 log CFU/ml
[14] = Table 6, 4 hours, initial count 7.27 log CFU/ml
[15] = Table 6, 8 hours, initial count 7.27 log CFU/ml
[16] = Table 3, 2 hours, initial count 7.04 log CFU/ml
[17] = Table 3, 6 hours, initial count 7.04 log CFU/ml
[18] = Table 3, 8 hours, initial count 7.04 log CFU/ml
[19] = Table 5, 2 hours, initial count log 7.43 CFU/ml
[20] = Table 5, 4 hours, initial count log 7.43 CFU/ml
[21] = Table 5, 8 hours, initial count log 7.43 CFU/ml

Structure (SMILES) | Bacterial count [1, 4] [Log CFU/ml] | Bacterial count [1, 5] [Log CFU/ml] | Bacterial count [1, 6] [Log CFU/ml] | Bacterial count [1, 7] [Log CFU/ml] | Bacterial count [1, 8] [Log CFU/ml] | Bacterial count [1, 9] [Log CFU/ml] | Bacterial count [1, 10] [Log CFU/ml] | Bacterial count [1, 11] [Log CFU/ml] | Bacterial count [1, 12] [Log CFU/ml] | Bacterial count [1, 13] [Log CFU/ml] | Bacterial count [1, 14] [Log CFU/ml] | Bacterial count [1, 15] [Log CFU/ml] | Bacterial count [2, 16] [Log CFU/ml] | Bacterial count [2, 17] [Log CFU/ml] | Bacterial count [2, 18] [Log CFU/ml] | Bacterial count [2, 19] [Log CFU/ml] | Bacterial count [2, 20] [Log CFU/ml] | Bacterial count [2, 21] [Log CFU/ml] | antibacterial activity (growth in presence of drug alone) ([1]; Table 2) | further results
CO/N=C(\C(=O)N[C@@H]1C(=O)N2C(C(=O)O)=C(COC(N)=O)CS[C@H]12)c1ccco1 [Cefuroxime (2 mcg/ml), cefuroxime] | 8.77 | 8.90 | 9 | – | – | – | – | – | – | – | – | – | – | – | – | – | – | – | – | –
C[C@@H](O)[C@H]1C(=O)N2C(C(=O)O)=C(SCCN=CN)C[C@H]12 [Imipenem, imipenem] | 5.32 | 3.84 | 2.32 | 5.32 | 2.6 | 2.0 | 4.87 | 3.39 | 2.84 | 5.32 | 3.84 | 2.32 | 5.4 | 3.9 | 3.8 | 6.37 | 5.69 | 6.60 | – | –
CC1(C)S[C@@H]2[C@H](/N=C/N3CCCCCC3)C(=O)N2[C@H]1C(=O)O [Mecillinam, mecillinam] | 8.23 | 8.74 | 9.47 | 7.47 | 8.23 | 9.1 | 7.95 | 8.33 | 8.90 | 8.23 | 8.74 | 9.47 | 7.74 | 8.69 | 8.89 | 8.39 | 8.60 | 8.90 | no antibacterial activity | MIC ([3]; ATCC700603, agent used alone, read-out: MIC value when used alone): > 64 µg/mL
O=C(O)[C@H]1/C(=C/CO)O[C@@H]2CC(=O)N21 [Clavulanic acid, clavulanic acid] | 8.47 | 9.09 | 9.09 | 8.1 | 8.8 | 9 | 8.4 | 8.65 | 8.9 | 8.47 | 9.09 | 9.09 | 8.1 | 8.7 | 9 | 8.1 | 8.56 | 8.85 | no antibacterial activity | MIC ([3]; ATCC700603, read-out: MIC value when used alone): > 64 µg/mL
COCC1=C(C(=O)O)N2C(=O)[C@@H](NC(=O)/C(=N\OC)c3csc(N)n3)[C@H]2SC1 [Cefpodoxime (2 mcg/ml), cefpodoxime] | – | – | – | – | – | – | – | – | – | 8.54 | 9 | 9 | – | – | – | – | – | – | – | –
C=CC1=C(C(=O)O)N2C(=O)[C@@H](NC(=O)/C(=N\OCC(=O)O)c3csc(N)n3)[C@H]2SC1 [Cefixime (2 mcg/ml), cefixime] | – | – | – | – | – | – | 8.11 | 8.30 | 9 | – | – | – | – | – | – | 8.16 | 8.47 | 8.84 | – | –
CC1(C)S[C@@H]2[C@H](NC(=O)[C@H](N)c3ccc(O)cc3)C(=O)N2[C@H]1C(=O)O [Amoxicillin, amoxicillin] | – | – | – | 7.84 | 8.5 | 9 | – | – | – | – | – | – | 7.8 | 8.8 | 9 | – | – | – | no antibacterial activity | MIC ([3]; ATCC700603, amoxicillin alone or with fixed concentration of partner(s) named in the label, read-out: MIC of Amoxicillin): > 64 µg/mL

Source: patent US20150258072A1, “Antibacterial compositions” (WOCKHARDT LIMITED, priority 2012, published 2015)
